Assay results from US9017644B2, “Methods of treating autoimmune disorders and/or inflammatory disorders” (priority 2008, dated 2015).

Legend:
[1] = test system: developing type II collagen arthritis; assay: Rat collagen arthritis model, treatment alone or in combination with etanercept (Example 5); assay type: in vivo; conditions: for % decrease in ankle diameter verses disease control, drug alone: day 17
Description: (§1) Rat collagen induced arthritis is an experimental model of polyarthritis that has been widely used for preclinical testing of numerous anti-arthritic agents. Rat type II collagen arthritis results when rats are immunized against homologous or heterologous type II collagen. […] As used herein “significant” means that p≦0.05. Unless specified as “normal control” or “disease control” reference to “animal” means a rat with developing type II collagen arthritis.
Bovine Type II collagen (Sigma) was diluted with 0.1N acetic acid to a concentration of 4 mg/ml. and emulsified with an equal volume of Freund's incomplete adjuvant (Sigma). Female Lewis rats (Charles River) were randomized by weigh into 10 study groups Table 3 identifies the groups that were used for evaluation of efficacy and Table 4 identifies the groups used for evaluation of toxicity.
Animals were anesthetized and immunized at the base of the tail and two sites on the back on day 0 and day 6. Animals were weighed on days 0, 3, 9-24. […] Treatment was administered either alone or in combination with etanercept, (1 mg/kg) dosed subcutaneously on days 9, 12 and 15. […] The remaining 4 animals were sacrificed for necropsy on day 16.

[2] = test system: developing type II collagen arthritis; assay: Rat collagen arthritis model, dose responsive efficacy, IV or SC 2x/week (Example 4); assay type: in vivo; conditions: IV 2x/week, read-out: average ED50 value for efficacy (AUC+Final Paw Weight)
Description: as §1
(§2) Bovine Type II collagen (Sigma) was diluted with 0.1N acetic acid to a concentration of 4 mg/ml. and emulsified with an equal volume of Freund's incomplete adjuvant (Sigma).
(§3) The rats were anesthetized and given collagen injections spread over 3 subcutaneous sites on back on day 0 and day 6. […] Rats were weighed on days 0, 3, 6, and 9-18 of the study, and caliper measurements of ankles were taken every day beginning on day 9 (or day 0 of arthritis). After final body weight measurement on day 18, animals were euthanized, blood was drawn for serum (for clinical chemistries) and CBC analysis and tissues were collected. No clinical chemistry or CBC analysis was done for groups 5s and 12s, however these groups were sampled for drug levels for pharmacokinetic analysis.

[3] = test system: developing type II collagen arthritis; assay: Rat collagen arthritis model, prophylactic IV treatment 3x/week, day 0-16 (Example 3); assay type: in vivo
Description: as §1, §2
The rats were anesthetized and given collagen injections spread over 3 subcutaneous sites on back on day 0 and day 6.

[4] = Lewis, rat, in vivo, 18 day
Description: as §3
Complete Blood Counts (CBC) and Clinical Chemistries were evaluated for each group.

[5] = Observation on high dose MTX dosing preparation; assay type: physicochemical; conditions: 0.75 mg/kg dose preparation
[6] = batches 70 mg/kg, methotrexate 0.2 mg/kg, FIG. 5

| Molecule | % decrease in ankle diameter verses disease control, drug alone ([1]; 0.25 mg/kg PO 2x/week) [%] | decreases in ankle diameter from disease control, alone or in combination with etanercept ([1]; ATI-101 5, 20 and 65 mg/kg, MTX 0.25 mg/kg) | ED50 [2] [mg/kg] | inhibition of ankle diameter AUC as compared to disease controls ([3]; Batch 1 and Batch 2 70 mg/kg, MTX 0.2 mg/kg, IV 3x/week, 17 day study) [%] | inhibition of final paw weights as compared to disease controls ([3]; Batch 1 and Batch 2 70 mg/kg, MTX 0.2 mg/kg, IV 3x/week, day 17) [%] | ankle cartilage damage, representative photomicrograph [3, 6] | ankle pannus and bone destruction, representative photomicrograph [3, 6] | ankle synovitis, representative photomicrograph [3, 6] | therapeutic index, considering bone marrow suppression at 0.5 mg/kg ([4]; 0.5 mg/kg) | dose value for life threatening toxicity (bone marrow suppression) ([4]; iv) [mg/kg] | behaviour of high dose preparation in solution [5] | % decrease in ankle diameter verses disease control, drug alone ([1]; 1 mg/kg SC days 9, 12, 15) [%] |
| --- | --- | --- | --- | --- | --- | --- | --- | --- | --- | --- | --- | --- |
| CN(Cc1cnc2nc(N)nc(N)c2n1)c1ccc(C(=O)N[C@@H](CCC(=O)O)C(=O)O)cc1 [MTX, Methotrexate] | 52 | Significant decreases | 0.25 | 54 | 46 | minimal | minimal | moderate | less than 2 | 0.75 | did not remain completely in solution |  |
| etanercept |  |  |  |  |  |  |  |  |  |  |  | 37 |
